Tests used:
Aβ 1-42 = target: T1, Aβ 1-42 (Homo sapiens, UniProt P05067); experiment: Fluorometric H2O2 assay (inhibition of Abeta H2O2 production); type: biochemical; settings: concentration required to inhibit 50% of Abeta H2O2 production; read-out: H2O2 IC50
T1 construct: The reaction solutions contained Aβ 1-42 at concentrations
Outline: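 Copper-dependent Aβ H2O2 production measured fluorometrically with deacetylated dichlorofluorescein plus HRP in PBS, pH 7.4. Incubation 60 min at 37 C, test compound included in wells. H2O2 quantified against H2O2 standards.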

[1] = tested on: M17 human neuroblastoma cells; experiment: Cytotoxicity, M17 human neuroblastoma cells; type: cell-based; settings: for Cytotox (% viable) M17 cells at 1 μM: 1 μM test compound; for Cytotox (% viable) M17 cells at 10 μM: 10 μM test compound
Description: Assay 3. MTS Assay for Cell Viability
Cell viability is determined using the MTS assay. Culture medium is replaced with fresh neurobasal medium plus B27 supplements minus antioxidants. 1/10th volume MTS solution (Cell Titre 96 Aqueous One, Promega Corporation) and incubated at 37° C., 2 hrs. 200 microliter aliquots are measured with a spectrophotometer at 560 nm.

[2] = tested on: dityrosine oligomerization; experiment: CuTy: inhibition of dityrosine oligomerization; type: biochemical; settings: referenced to in-house standard (set as 100% inhibition)
[3] = target: T2, Abeta:Zn (25:50 μM) Synthetic Aggregations (Homo sapiens, UniProt P05067); experiment: Disaggregation of Abeta:Zn synthetic aggregates (ThT fluorescence); type: biochemical; settings: for Disaggregation % Aggregate reduction at 5 μM: 5 μM test compound; for EC50: Abeta:Zn 25:50 μM aggregates
T2 construct: PB Compound Mediated Dissolution of Aggregated Abeta 1-42; purchased Keck Laboratory, Yale University School of Medicine
T2 sequence (P05067 672-713 limits assumed): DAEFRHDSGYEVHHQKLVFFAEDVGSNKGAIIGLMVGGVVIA
Outline: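 Abeta1-42 (25 μM) with ZnCl2 (50 μM) and ThT (50 μM) in PBS pH 6.6 was preaggregated 24 h at 37 degrees with rotation. Aggregates were then exposed to compound (final 1-50 μM, DMSO) for 2 h at 37 degrees. ThT fluorescence was read at ex 450/em 480 nm.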

[4] = Mice plasma concentration after oral dose; type: in vivo; settings: for Mice plasma concentration: 30 min to 4 h after single or repeat oral dose of 30 mg/kg
Aβ deposits = settings: 9 weeks; for Tg Mice % difference from control in Amyloid plaque abundance / Tg Mice % difference from control in insoluble brain amyloid burden / Tg Mice % difference from control in soluble brain amyloid burden: daily oral gavage 30 mg/kg, 13-14 months old transgenic mice
[5] = Toxicity, visual observations in mice; settings: duration and visual observations
[6] = tested on: primary cortical neuronal cultured cells; experiment: Test compound cytotoxicity, MTS assay, primary cortical neuronal cultures; type: cell-based, mouse; settings: for Cytotox (% viable) Neuronal cells at 1 μM: 1 μM test compound; for Cytotox (% viable) Neuronal cells at 10 μM: 10 μM test compound
Outline: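 Primary cortical neurons were cultured five days in Neurobasal/B27, then exposed on day six to compounds (from 2.5 mM DMSO stocks) in medium minus antioxidants, in triplicate for 4 days at 37° C. Viability was measured by MTS, 2 h at 37° C, absorbance at 560 nm.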

T1 sequence (P05067 672-713 limits assumed): as above

Row | Structure (SMILES) | IC50 (Aβ 1-42) [nM] | Cytotox (% viable) M17 cells at 1 μM [1] [%] | Cytotox (% viable) M17 cells at 10 μM [1] [%] | CuTy % inhibition of dityrosine oligomerization [2] | Disaggregation % Aggregate reduction at 5 μM [3] [%] | EC50 [3] [nM] | Mice plasma concentration [4] | Tg Mice % difference from control in Amyloid plaque abundance (Aβ deposits) | Tg Mice % difference from control in insoluble brain amyloid burden (Aβ deposits) | Tg Mice % difference from control in soluble brain amyloid burden (Aβ deposits) | Toxicity at 30 mg/kg [5] | Mice plasma concentration at 10 mg/kg ([4]; oral dose 10 mg/kg) | Tg Mice effect on brain amyloid burden and plaque at 10 mg/kg (Aβ deposits; daily oral gavage 10 mg/kg) | Toxicity at 10 mg/kg ([5]; 10 mg/kg) | Cytotox (% viable) Neuronal cells at 1 μM [6] [%] | Cytotox (% viable) Neuronal cells at 10 μM [6] [%]
1 | O=c1c2ccc(I)c(O)c2ncn1CC1CC1 [PB 1120] | 280 | 106.9 | 62 | CuTy: 25% inhibition | 47.5 | 5600 | Up to 2508 ng/ mL ng/mL | Decrease | No change | No change | 10 days, none | – | – | – | – | –
2 | CCc1cnc2c(O)c(I)ccn2c1=O [PB 1127] | 280 | 82.5 | 23.3 | 25% inhibit | 55 | 4500 | – | – | – | – | – | At 10 mg/kg: Up to 7082 ng/ mL ng/mL | At 10 mg/kg No effect | At 10 mg/kg 10 days, none | – | –
3 | CC(C)c1cnc2c(O)cccn2c1=O [PB 1135] | 270 | 99.7 | 45.6 | CuTy: 90% inhibition | 31 | > 20000 | Up to 409 ng/ml ng/mL | – | – | – | 10 days, none | – | – | – | – | –
4 | CCCc1cnc2c(O)cccn2c1=O [PB 1149] | 300 | 79.1 | 45.2 | CuTy: 95% inhibition | 49 | 5000 | Up to 690 ng/ml ng/mL | −45% | No change | No change | 10 days, none | – | – | – | 86.2 | 12.4
5 | CCCCNC(=O)c1cnc2c(O)c(I)ccn2c1=O [PB 1160] | 750 | 85.3 | 63.4 | CuTy: 95% inhibition | 56.8 | 4050 | Up to 27,598 ng/mL | decrease | No change | −25% | 10 days, none | – | – | – | – | –
6 | Br.CNCc1nc2c(O)c(Cl)cc(Cl)c2c(=O)n1C [PB 1161] | – | 101.4 | 112.5 | 100% inhib | 27 | > 20000 | Up to 510.4 ng/mL | −64% | No change | No change | 10 days, none | – | – | – | 105.4 | 103.9
7 | O=c1c2c(Cl)cc(Cl)c(O)c2ncn1Cc1ccncc1 [PB 1241] | 440 | 105.4 | 90.4 | CuTy: 80% inhibition | – | – | Up to 2181.1 ng/mL | – | – | – | 10 days, none | – | – | – | 98.4 | 90.9
8 | O=c1c2c(Cl)cc(Cl)c(O)c2ncn1Cc1ccn2ccnc2c1 [PB 1252] | 720 | 105.4 | 105.1 | CuTy: 50% inhibition | – | – | Up to 1465.4 ng/mL | – | – | – | 10 days, none | – | – | – | 94.6 | 103.1
9 | O=C(O)CCCn1cnc2c(O)c(Cl)cc(Cl)c2c1=O [PB 1255] | 930 | 109.7 | 102.9 | CuTy: 125% inhibition | – | – | Up to 17008 ng/ mL ng/mL | – | – | – | 10 days, none | – | – | – | 97.9 | 98.0
10 | Cn1nccc1-n1cnc2c(O)c(Cl)cc(Cl)c2c1=O [PB 1262] | 940 | 106.5 | 94.2 | CuTy No effect | – | – | Up to 7107 ng/ mL ng/mL | – | – | – | 10 days, none (16/11/05) | – | – | – | 104.6 | 83.7
11 | O=c1c2c(Cl)cc(Cl)c(O)c2ncn1CC1CC1 [PB-1076] | – | 96.2 | 76.8 | 100% inhibit | 15.1 | > 20000 | Up to 2698 ng/ mL in mice ng/mL | −29% | −26% | −37% | 11 days, none | – | – | – | 116 | 105
12 | O=c1c2c(Cl)cc(Cl)c(O)c2ncn1Cc1ccccn1 [PB-1077] | – | 97.7 | 91 | CuTy: 50% inhibition | 24 | > 20000 | Up to 984 ng/ mL in mice ng/mL | −30% | No change | No change | 10 days, none | – | – | – | 99 | 98
13 | Cc1nc(Cn2cnc3c(O)c(Cl)cc(Cl)c3c2=O)cs1 [PB-1084] | – | 97 | 95.7 | CuTy: 75% inhibition | 23.4 | 40700 | Up to 2439 ng/ mL ng/mL | decrease | No change | −29% | 10 days, none | – | – | – | 100 | 93
14 | Cc1noc(C)c1Cn1cnc2c(O)c(Cl)cc(Cl)c2c1=O [PB-1085] | – | 104.9 | 76.2 | CuTy: 90% inhibition | 25 | > 20000 | Up to 3644 ng/ mL ng/mL | −43% | −34% | increase | 10 days, none | – | – | – | 99 | 72
